# Earlier results, collected in patent publication US5981578A (priority 1997, dated 1999).
# Details: in just a few days
smiles,measurement,value
"O=C1O[C@H]([C@@H](O)CO)C(O)=C1O [Ascorbic acid, ascorbic acid]",color development of aqueous preparations,"develop colors, progressively, from light yellow to orange dark brown"
